Data reported in patent publication US20130165368A1, “ANTIMICROBIAL COMPOUNDS” (priority 2010, published 2013).
≈ marks a conversion by molar mass, not a printed value. Where two headings read alike, the source gives them in different places.

What was measured:
Type in all cases: cell-based
Staphylococcus aureus = test: MIC agar dilution, micro-organism 13 (6571); conditions: Staphylococcus aureus 6571
Outline: (§1)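 Agar dilution in Isosensitest/CCEY agar with egg yolk and lysed horse blood; compounds as aqueous emulsions (myristyl and lauryl alcohol with 1-methyl-2-pyrrolidone and Tween 20). 1 µL spots of 1/15-diluted 0.5 McFarland suspensions, 37 °C aerobic, read at 22 and 48 h; MIC (mmol/L) is lowest concentration giving <10 colonies.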

Escherichia coli = test: MIC agar dilution, micro-organism 1 (10418); conditions: Escherichia coli 10418
Outline: as §1

Bacillus subtilis = test: MIC agar dilution, micro-organism 18 (9372); conditions: Bacillus subtilis 9372
Outline: as §1

MRSA FIN 54511 (E6) = test: MIC agar dilution, MRSA strain 32; conditions: Staphylococcus aureus
Protocol: (§2) Molar equivalent concentrations were used to allow comparison between compounds of differing molecular mass. Due to weighing difficulties, any compound in solid form was melted in a water bath prior to dilution. To make ten-times strength concentrations, which takes into account agar dilution, 0.0352 mmol of each compound was weighed into plastic universal bottles and 4 mL of sterile distilled water (SDW) was added. To produce a homogenous emulsion the universals were vortexed; once achieved the emulsions were serial diluted by adding 2 mL to 2 mL of SDW.
(§3) For every 100 mL of Isosensitest agar (IST) (CM0471; Oxoid, Basingstoke, England), 3.1 g of the IST powder was added to 100 mL SDW (as per manufacturer's instructions) and sterilised for 15 minutes at 121° C. Once sterilised, the molten agar was cooled to 50° C. in a water-bath. Subsequently 4.8 g of CCEY powder (BC2160; Bioconnections, Wetherby, England), also known as Brazier's medium, was added to 100 mL SDW for every 100 mL of agar needed. This was then sterilised for 15 minutes at 121° C. Once sterilised the molten agar was cooled to 50° C. in a water-bath and 4 mL of egg-yolk emulsion (S2073; TCS Biosciences Ltd, Buckingham, United Kingdom) and 1 mL of lysed defibrinated horse blood (HB035; TCS Biosciences Ltd, Buckingham, United Kingdom) were also added for every 100 mL needed. Horse blood lysis is achieved by dilution to half concentration with SDW; when fully lysed the mixture will turn dark red in colour.
(§4) 18 mL agar was added to each universal and then poured into sterile Petri dishes. This step creates a 1/10 dilution resulting in agar plates of the required strength. Control plates for each set of strains were created by adding 18 mL of agar to 2 mL of SDW.
(§5) Suspensions of each bacterial species were prepared with a density equal to that of a 0.5 McFarland standard using a densitometer. All suspensions were made using sterile distilled water and fresh 18-20 hour cultures. As a 0.5 McFarland standard contains 1.5×10^8 CFU/mL and the multipoint inoculators applies 1 μL spots of liquid, each bacterial suspension was diluted 1/15 (20 μL suspension to 280 μL sterile distilled water).
(§6) Bacterial suspensions were prepared from fresh 18-24 hour cultures as previously described. 1 μL of each strain was inoculated onto all 100 agar plates containing a different chemical concentration and the 2 control plates. This was done using a multipoint inoculator which inoculates 20 strains per plate. All plates were incubated for 22 hours at 37° C. in aerobic conditions.
(§7) Each plate was examined for bacterial growth after 22 and 48 hours, with each being incubated in between examinations. A positive result was recorded as growth of ≧10 colonies. A negative result was recorded as growth of <10 colonies as this is equivalent to 99.9% inhibition. The lowest concentration of chemical that inhibited growth was recorded as the MIC. The results are recorded in Table IV below, where the numbers are quoted in mmol/L.
(§8) Given the positive performance of the ethoxylates of lauryl alcohol in reducing the MIC for a number of the micro-organisms tested, further MIC testing of Laureth-1 [C12E1] through to Laureth-8 [C12E8] was conducted on each of the following: • 10 strains of vancomycin-resistant enterococci (VRE)—listed in Table V below; and • 20 strains of methicillin-resistant Staphylococcus aureus (MRSA)—listed in Table VI.
(§9) The alkanol, alkanol derivatives, agar plates, and inocula were all prepared in the same way as described above.
(§10) The plates were examined in the same manner as described above and the results are recorded in Table VII below, where the numbers are quoted in mmol/L.

MRSA FRA 920 = test: MIC agar dilution, MRSA strain 38; conditions: Staphylococcus aureus
Protocol: as §2, §3, §4, §5, §6, §7, §8, §9, §10

[1] = test system: Enterococcus faecium (VRE) MB 3137; test: MIC agar dilution, VRE strain 26
Protocol: as §2, §3, §4, §5, §6, §7, §8, §9, §10

[2] = test system: Enterococcus faecium (VRE) NCTC 12952; test: MIC agar dilution, VRE strain 30
Protocol: as §2, §3, §4, §5, §6, §7, §8, §9, §10

[3] = test system: Enterococcus faecalis (VRE) PHLS URINE 2000; test: MIC agar dilution, VRE strain 21
Protocol: as §2, §3, §4, §5, §6, §7, §8, §9, §10

[4] = test system: MRSA GER 1966/97 (Hanover IIIc); test: MIC agar dilution, MRSA strain 36; conditions: Staphylococcus aureus
Protocol: as §2, §3, §4, §5, §6, §7, §8, §9, §10

MRSA NCTC 11939 = test: MIC agar dilution, MRSA strain 50; conditions: Staphylococcus aureus, MRSA strain 50 NCTC 11939
Protocol: as §2, §3, §4, §5, §6, §7, §8, §9, §10

MRSA BEL 97598 = test: MIC agar dilution, MRSA strain 34; conditions: Staphylococcus aureus
Protocol: as §2, §3, §4, §5, §6, §7, §8, §9, §10

MRSA EMRSA 15 1758/98 = test: MIC agar dilution, MRSA strain 43; conditions: Staphylococcus aureus
Protocol: as §2, §3, §4, §5, §6, §7, §8, §9, §10

MRSA EMRSA 16 18200/95 = test: MIC agar dilution, MRSA strain 48; conditions: Staphylococcus aureus
Protocol: as §2, §3, §4, §5, §6, §7, §8, §9, §10

[5] = Staphylococcus aureus, 22 h, 22 hrs, read-out: MIC
[6] = Staphylococcus aureus, 48 h, 48 hrs, read-out: MIC

MIC (Staphylococcus aureus; [5]) [µM] | MIC (Staphylococcus aureus; [6]) [µM] | MIC (Escherichia coli; 22 hrs, read-out: MIC) [µM] | MIC (Escherichia coli; 48 hrs, read-out: MIC) [µM] | MIC (Bacillus subtilis; 22 hrs, read-out: MIC) [µM] | MIC (Bacillus subtilis; 48 hrs, read-out: MIC) [µM] | SMILES | MIC (MRSA FIN 54511 (E6); 22 hrs) [µM] | MIC (MRSA FIN 54511 (E6); 48 hrs) [µM] | MIC (MRSA FRA 920; 22 hrs) [µM] | MIC (MRSA FRA 920; 48 hrs) [µM] | MIC ([1]; 22 hrs) [µM] | MIC ([1]; 48 hrs) [µM] | MIC ([2]; 22 hrs) [µM] | MIC ([2]; 48 hrs) [µM] | MIC ([3]; 22 hrs) [µM] | MIC ([3]; 48 hrs) [µM] | MIC ([4]; 22 hrs) [µM] | MIC ([4]; 48 hrs) [µM] | MIC (MRSA NCTC 11939; 22 hrs) [µM] | MIC (MRSA NCTC 11939; 48 hrs) [µM] | other results
> 880 | > 880 | > 880 | > 880 | > 880 | > 880 | CCCCCCCCCCCCCCCCO [C0, 1-Hexadecanol, reference compound] |  |  |  |  |  |  |  |  |  |  |  |  |  |  | 
 |  |  |  |  |  | CCCCCCCCCCCCCOCCOCCOCCOCCOCCOCCO [C13E6, polyoxyethylene (6) tridecyl alcohol] |  |  |  |  |  |  |  |  |  |  |  |  |  |  | MIC (Staphylococcus aureus; 22 hrs): 110 µM (≈ 51.1 µg/mL); MIC (Staphylococcus aureus; 48 hrs): 110 µM (≈ 51.1 µg/mL); MIC (Escherichia coli; 22 hrs): >880 µM; MIC (Escherichia coli; 48 hrs): >880 µM; MIC (Bacillus subtilis; 22 hrs): 110 µM (≈ 51.1 µg/mL); MIC (Bacillus subtilis; 48 hrs): 110 µM (≈ 51.1 µg/mL)
110 (≈ 30.2 µg/mL) | 110 (≈ 30.2 µg/mL) | > 880 | > 880 | 110 (≈ 30.2 µg/mL) | 220 (≈ 60.4 µg/mL) | CCCCCCCCCCCCOCCOCCO [L2, Diethylene Glycol Monododecyl Ether] | 110 (≈ 30.2 µg/mL) | 110 (≈ 30.2 µg/mL) | 110 (≈ 30.2 µg/mL) | 110 (≈ 30.2 µg/mL) | > 880 | > 880 | 440 (≈ 121 µg/mL) | 440 (≈ 121 µg/mL) | 220 (≈ 60.4 µg/mL) | 220 (≈ 60.4 µg/mL) | 110 (≈ 30.2 µg/mL) | 110 (≈ 30.2 µg/mL) | 55 (≈ 15.1 µg/mL) | 110 (≈ 30.2 µg/mL) | MIC (MRSA BEL 97598; 22 hrs): 110 µM (≈ 30.2 µg/mL); MIC (MRSA BEL 97598; 48 hrs): 220 µM (≈ 60.4 µg/mL); MIC (MRSA EMRSA 15 1758/98; 22 hrs): 110 µM (≈ 30.2 µg/mL); MIC (MRSA EMRSA 15 1758/98; 48 hrs): 110 µM (≈ 30.2 µg/mL); MIC (MRSA EMRSA 16 18200/95; 22 hrs): 110 µM (≈ 30.2 µg/mL); MIC (MRSA EMRSA 16 18200/95; 48 hrs): 110 µM (≈ 30.2 µg/mL)

SMILES | MIC (Staphylococcus aureus; [5]) [µM] | MIC (Staphylococcus aureus; [6]) [µM] | MIC (Escherichia coli; 22 hrs, read-out: MIC) [µM] | MIC (Escherichia coli; 48 hrs, read-out: MIC) [µM] | MIC (Bacillus subtilis; 22 hrs, read-out: MIC) [µM] | MIC (Bacillus subtilis; 48 hrs, read-out: MIC) [µM] | MIC (MRSA FIN 54511 (E6); 22 hrs) [µM] | MIC (MRSA FIN 54511 (E6); 48 hrs) [µM] | MIC (MRSA FRA 920; 22 hrs) [µM] | MIC (MRSA FRA 920; 48 hrs) [µM] | MIC ([1]; 22 hrs) [µM] | MIC ([1]; 48 hrs) [µM] | MIC ([2]; 22 hrs) [µM] | MIC ([2]; 48 hrs) [µM] | MIC ([3]; 22 hrs) [µM] | MIC ([3]; 48 hrs) [µM] | MIC ([4]; 22 hrs) [µM] | MIC ([4]; 48 hrs) [µM] | MIC (MRSA NCTC 11939; 22 hrs) [µM] | MIC (MRSA NCTC 11939; 48 hrs) [µM] | other results
CCCCCCCCCCCCOCCO [L1, Ethylene Glycol Monododecyl Ether] | 220 (≈ 50.7 µg/mL) | 220 (≈ 50.7 µg/mL) | 220 (≈ 50.7 µg/mL) | 220 (≈ 50.7 µg/mL) | 440 (≈ 101 µg/mL) | 440 (≈ 101 µg/mL) | 220 (≈ 50.7 µg/mL) | 220 (≈ 50.7 µg/mL) | 220 (≈ 50.7 µg/mL) | 220 (≈ 50.7 µg/mL) | 440 (≈ 101 µg/mL) | 440 (≈ 101 µg/mL) | 220 (≈ 50.7 µg/mL) | 220 (≈ 50.7 µg/mL) | 220 (≈ 50.7 µg/mL) | 220 (≈ 50.7 µg/mL) | 220 (≈ 50.7 µg/mL) | 220 (≈ 50.7 µg/mL) | 220 (≈ 50.7 µg/mL) | 220 (≈ 50.7 µg/mL) | MIC (MRSA BEL 97598; 22 hrs): 220 µM (≈ 50.7 µg/mL); MIC (MRSA BEL 97598; 48 hrs): 220 µM (≈ 50.7 µg/mL); MIC (MRSA EMRSA 15 1758/98; 22 hrs): 220 µM (≈ 50.7 µg/mL); MIC (MRSA EMRSA 15 1758/98; 48 hrs): 220 µM (≈ 50.7 µg/mL); MIC (MRSA EMRSA 16 18200/95; 22 hrs): 220 µM (≈ 50.7 µg/mL); MIC (MRSA EMRSA 16 18200/95; 48 hrs): 220 µM (≈ 50.7 µg/mL)
